# Measurements published in patent publication US8206756B2, “Herbal composition for inflammatory disorders” (Piramal Life Sciences Limited, priority 2005, dated 2012).
# pIC50: −log10 of the molar value.
# Key:
# TNF-α [1] = experiment: LPS-induced TNF-α release in BALB/c mice; format: in vivo; settings: LPS 1 mg/kg i.p., plasma
# Experimental: The protocol described by Fukuda T. et al (Eur. J. Pharmacol., 391: 317-320, (2000)) was followed. BALB/c mice were divided into groups of ten each. The test sample, suspended in Tween 80 and 0.5% carboxy methylcellulose (CMC), was orally (p.o.) administered to the mice. One hour later, LPS dissolved in sterile, pyrogen-free saline was administered i.p. at the dose of 1 mg/kg. The negative control group received saline as an i.p injection, while all other groups received LPS. Rolipram (30 mg/kg, p.o.) was used as the standard drug. One and a half hours later, under urethane anaesthesia (1.5 g/kg, i.p.) blood was collected from the abdominal artery using a 1 ml syringe flushed with heparin (500 IU/ml). Heparin (5 μl) was used as an anticoagulant in the blood collection tubes. Plasma was separated by centrifugation at 10000 rpm at room temperature, aliquoted and stored at −70° C. until analysis. TNF-α levels in the blood samples were assayed using ELISA and percent inhibition of TNF-α release compared to the control group was calculated.
# TNF-α [2] = experiment: TNF-α production by synovial cells from a RA patient; format: cell-based; settings: Homo sapiens, Synovial cell, 10 hours
# Experimental: Cytokine production by synovial cells obtained from a rheumatoid arthritis (RA) patient undergoing knee replacement surgery was measured according to the method described by Brennan, F. M. et al (The Lancet. July 29: 244-247, (1989)). The synovial membrane tissue was digested in DMEM (Gibco) containing 10% FBS, 100 U/ml penicillin and 100 μg/ml streptomycin, 4 mg/ml collagenase type I (Worthington), 1.5 μg/ml Dnase type I (Sigma) and 15 U/ml heparin and incubated at 37° C. for 3 hours. After incubation, the digested tissue was filtered through a 70-μm membrane and the cells washed 3 times in complete medium (DMEM with 10% FBS). The synovial cells were cultured at 1×10^6 cells/ml in presence/absence of the test sample for 10 hours. The supernatants were harvested by centrifugation and levels of the cytokines (TNF-α, IL-1β, IL-6, IL-8) measured by ELISA. To assess the cytotoxic effect of the plant extracts, the cellular viability test was performed using MTS reagent. The 50% inhibitory concentration (IC50) values were calculated by a nonlinear regression method using GraphPad software (Prism 3.03).
# Effect on proinflammatory cytokines produced by synovial cells obtained from a RA patient was studied for compound 1 as described by procedure of example 8.
# IL-6 = experiment: LPS-stimulated IL-6 release in hPBMCs (ELISA); format: cell-based; settings: Homo sapiens; LPS-stimulated hPBMC
# Experimental: Primary screening—Human peripheral blood mononuclear cells (hPBMCs). TNF-α production by lipopolysaccharides (LPS) in hPBMCs was measured according to the method described by Jansky, L. et al (Physiol. Res. 52: 593-598, (2003)). Blood was collected from healthy donors into Potassium EDTA vacutainer tubes (BD vacutainer). The PBMCs were isolated using gradient centrifugation in Histopaque-1077 solution (Sigma). Isolated PBMCs were suspended in RPMI 1640 culture medium (Gibco BRL, Pasley, UK) containing 10% fetal bovine serum (FBS) (Hyclone, Utah, USA), 100 U/ml penicillin (Sigma Chemical Co. St Louis, Mo.) and 100 μg/ml streptomycin (Sigma Chemical Co. St Louis, Mo.). The cell concentration was adjusted to 1×10^6 cells/ml. The viability as determined by trypan blue dye exclusion was uniformly ≧98%. […] The % inhibition was recorded. Percent cytotoxicity of the test samples compared to control was evaluated.
# The effect of the plant extract on the proinflammatory cytokines: TNF-α, interleukin-1β (IL-1β), interleukin-6 (IL-6) and interleukin-8 (IL-8) was measured using the supernatants generated in the primary screening assay. […]
# The effect of the Compound 1, on the proinflammatory cytokines: TNF-α interleukin-1β (IL-1β), interleukin-6 (IL-6) and interleukin-8 (IL-8) was measured using the supernatants generated in the primary screening assay. […]
smiles,measurement,setting,value
"C=C1C(=O)OC2C3=C(C)CCCC3(C)CCC12O (centres unmarked) [Compound 1, 3a-hydroxy-5a,9-dimethyl-3-methylene-3a,4,5,5a,6,7,8,9b-octahydro-3H-naphtho[1,2-b]furan-2-one]",% inhibition of TNF-α release,TNF-α [1]; 10 mg/kg p.o.,28.69 ± 13.71%
same,% inhibition of TNF-α release,TNF-α [1]; 30 mg/kg p.o.,39.98 ± 10.32%
same,% inhibition of TNF-α release,TNF-α [1]; 100 mg/kg p.o.,87.10 ± 3.67%
same,pIC50,TNF-α [2],6.10
same,pIC50,IL-6,5.80
